Experimental data reported in patent publication US12447193B2, “Compositions and methods for prevention and treatment of infections” (The University of Memphis Research Foundation, priority 2019, dated 2025).

Tested on: S. aureus (UAMS-1)
Assay: Osteomyelitis model in New Zealand White rabbits
Format: in vivo
Details: rabbit radius defect, 3 weeks, H&E
Protocol: This animal model was approved by the IACUC at the University of Arkansas Medical Sciences with all appropriate measures taken to minimize pain and discomfort. This in vivo model is an adaptation of the work by Smeltzer et al J Orthop Res, 1997 15(3):414-21. Female New Zealand White rabbits weighing 2-3 kg were divided into 5 groups (n=6/group) including the following: no treatment control, a hollow PMMA (Orthoset, MicroPort Memphis, TN) cylinder with amikacin and vancomycin (approximately 15 mg/implant), a vancomycin sprinkle of 10 mg, the Ch-PEG paste, and the ChMPEG paste. Rabbits were anesthetized with 1-2 cc of a xylazine/ketamine mixture intramuscularly for a dose range of […] xylazine and 30-40 mg/kg ketamine. Rabbits were maintained on isoflurane administered by nose cone to produce surgical anesthesia and monitored by a veterinary technician. The right forelimb of each rabbit was shaved and prepped using a betadine scrub and rinsed with 70% ethanol. An incision was made on the anterior surface of the right forelimb through the epidermis, musculature, and fascia until the radius was exposed. A 1 cm mid-radial segment was excised from the right radial bone using a miniature saw blade (Exakt, Oklahoma City, OK). […]

Compound: CN[C@H](CC(C)C)C(=O)N[C@H]1C(=O)N[C@@H](CC(N)=O)C(=O)N[C@H]2C(=O)N[C@H]3C(=O)N[C@H](C(=O)N[C@H](C(=O)O)c4cc(O)cc(O)c4-c4cc3ccc4O)[C@H](O)c3ccc(c(Cl)c3)Oc3cc2cc(c3O[C@@H]2O[C@H](CO)[C@@H](O)[C@H](O)[C@H]2O[C@H]2C[C@](C)(N)[C@H](O)[C@H](C)O2)Oc2ccc(cc2Cl)[C@H]1O [vancomycin powder, vancomycin]
- inflammation in histological sections of bone in the defect: areas of high inflammatory cell presence
- tissue growth / fill in the defect (histology): tissue fill within the defect
